# From ChEMBL document CHEMBL6092183, “Rapid Affinity and Microsomal Stability Ranking of Crude Mixture Libraries of Histone Deacetylase Inhibitors” (ACS Med Chem Lett, 2024)
# Several values for one entry are separate records, joined by “and”; a condition that tells them apart may be missing. Equal values may be shown once.
# Experiments:
# [1] = in vitro; details: rat, microsomes
# [2] = biological target: Histone deacetylase 2 (Homo sapiens, UniProt Q92769); test: Inhibition of HDAC2 (unknown origin) incubated for 30 mins by ALIS assay
# Sequence of Histone deacetylase 2 (Q92769 whole entry): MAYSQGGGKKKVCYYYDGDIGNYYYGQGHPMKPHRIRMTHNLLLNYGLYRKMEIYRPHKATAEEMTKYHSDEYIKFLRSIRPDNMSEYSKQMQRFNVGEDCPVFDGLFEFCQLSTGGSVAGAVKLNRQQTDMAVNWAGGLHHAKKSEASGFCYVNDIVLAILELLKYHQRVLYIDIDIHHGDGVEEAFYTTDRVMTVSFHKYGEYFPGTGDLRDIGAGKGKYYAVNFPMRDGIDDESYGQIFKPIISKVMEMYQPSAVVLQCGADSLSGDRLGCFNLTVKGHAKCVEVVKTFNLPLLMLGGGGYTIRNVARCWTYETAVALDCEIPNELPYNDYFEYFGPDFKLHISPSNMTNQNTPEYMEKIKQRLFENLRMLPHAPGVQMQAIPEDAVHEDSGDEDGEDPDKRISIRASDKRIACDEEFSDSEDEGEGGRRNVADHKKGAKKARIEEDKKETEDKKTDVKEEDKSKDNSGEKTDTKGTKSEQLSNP
# [3] = human, microsomes
# Description: Metabolic stability in human liver microsomes
"microsomal CLint at 0.75 h, 0.3 µM [1] [µL/min/mg]",IC50 [2],Stability [3],SMILES
195,–,–,CCCC[C@H](NC(=O)[C@H](CN)c1c[nH]c2ccc(OC)cc12)c1nc(-c2cccc(C)c2)c[nH]1
984,432 nM,–,O=C(NCCCC[C@H](NC(=O)C1CC12CCCCC2)c1ncc(-c2ccc3ccccc3c2)[nH]1)c1c(O)cccc1F (some centres not stated)
811,441 nM and 144 nM,–,O=C(NCCCC[C@H](NC(=O)C1CC12CCCC2)c1ncc(-c2ccc3ccccc3c2)[nH]1)c1c(O)cccc1F (some centres not stated)
66.8,423 nM,–,CCC(=O)CCCCC[C@H](NC(=O)C1CC12CN(C(C)=O)C2)c1ncc(-c2ccccc2)[nH]1 (some centres not stated)
51,–,–,CCCC[C@H](NC(=O)[C@H](CN)c1c[nH]c2ccc(OC)cc12)c1nc(-c2cc(C)cc(C)c2)c[nH]1
68.9,–,Stable,CCCC[C@H](NC(=O)[C@H](CN)c1c[nH]c2ccc(OC)cc12)c1nc(-c2ccc(C#N)cc2)c[nH]1
9.9,428 nM,–,CCCC[C@H](NC(=O)[C@H](CN)c1c[nH]c2ccc(OC)cc12)c1nc(-c2ccn(C)c(=O)c2)c[nH]1
192,–,–,CCCC[C@H](NC(=O)[C@H](CN)c1c[nH]c2ccc(OC)cc12)c1nc(-c2ccc3c(C)noc3c2)c[nH]1
164,–,Stable,CCCC[C@H](NC(=O)[C@H](CN)c1c[nH]c2ccc(OC)cc12)c1nc(-c2ccc(OC)cc2)c[nH]1
11.8,112 nM,–,CCC(=O)CCCCC[C@H](NC(=O)C1C2CNCC21)c1ncc(-c2ccccc2)[nH]1 (some centres not stated)
1240,19.1 nM,–,O=C(NCCCC[C@H](NC(=O)C1CN2CCC1CC2)c1ncc(-c2ccc3ccccc3c2)[nH]1)c1c(O)cccc1F (some centres not stated)
75.7,295 nM,Stable,CCC(=O)CCCCC[C@H](NC(=O)C1C2COCC21)c1ncc(-c2ccccc2)[nH]1 (some centres not stated)
70.1,–,–,O=C(NCCCC[C@H](NC(=O)C1CC12CCNCC2)c1ncc(-c2ccc3ccccc3c2)[nH]1)c1c(O)cccc1F (some centres not stated)
3510,–,–,CCC(=O)CCCCC[C@H](NC(=O)C1CC12CCCC2)c1ncc(-c2ccccc2)[nH]1 (some centres not stated)
1150,45.4 nM and 89.8 nM,–,O=C(NCCCC[C@H](NC(=O)C1C2COCC21)c1ncc(-c2ccc3ccccc3c2)[nH]1)c1c(O)cccc1F (some centres not stated)
83.4,–,–,CCCC[C@H](NC(=O)[C@H](CN)c1c[nH]c2ccc(OC)cc12)c1nc(-c2ccc(-c3ccn(C)n3)cc2)c[nH]1
754,–,–,O=C(NCCCC[C@H](NC(=O)C1C2CCNC21)c1ncc(-c2ccc3ccccc3c2)[nH]1)c1c(O)cccc1F (some centres not stated)
693,48 nM and 12 nM,–,CS(=O)(=O)N1CC2(CC2C(=O)N[C@@H](CCCCNC(=O)c2c(O)cccc2F)c2ncc(-c3ccc4ccccc4c3)[nH]2)C1 (some centres not stated)
310,64.5 nM,–,CC(=O)N1CC2(CC2C(=O)N[C@@H](CCCCNC(=O)c2c(O)cccc2F)c2ncc(-c3ccc4ccccc4c3)[nH]2)C1 (some centres not stated)
57.5,37 nM,–,O=C(NCCCC[C@H](NC(=O)C1C2CNCC21)c1ncc(-c2ccc3ccccc3c2)[nH]1)c1c(O)cccc1F (some centres not stated)
805,–,–,O=C(NCCCC[C@H](NC(=O)C1CCCCC12CC2)c1ncc(-c2ccc3ccccc3c2)[nH]1)c1c(O)cccc1F (some centres not stated)
110,–,–,CCCC[C@H](NC(=O)[C@H](CN)c1c[nH]c2ccc(OC)cc12)c1nc(-c2ccc(C3CC(C)(C)C3)cc2)c[nH]1

SMILES,"microsomal CLint at 0.75 h, 0.3 µM [1] [µL/min/mg]",IC50 [2],Stability [3]
CCC(=O)CCCCC[C@H](NC(=O)C1CC2CCN1CC2)c1ncc(-c2ccccc2)[nH]1 (some centres not stated),144,96.8 nM,–
CCC(=O)CCCCC[C@H](NC(=O)CC1CN2CCC1CC2)c1ncc(-c2ccccc2)[nH]1 (some centres not stated),91.8,211 nM,–
CCC(=O)CCCCC[C@H](NC(=O)C1CN2CCC1CC2)c1ncc(-c2ccccc2)[nH]1 (some centres not stated),134,146 nM,–
